Measurements taken from patent US9221808B2, “Pyridylthiazole-based ureas as inhibitors of Rho associated protein kinase (ROCK) and methods of use” (H. Lee Moffitt Cancer Center and Research Institute, Inc., priority 2010, dated 2015).

Columns and labels:
[1] = biological target: ROCK1 (Homo sapiens (Human), UniProt Q13464); assay: FRET-based Z'-Lyte kinase assay, ROCK1; assay type: biochemical; settings: for IC50: read-out: IC50 ± SD (μM) ROCK1; for fold decrease in activity compared to 1bo: comparator 1bo (comparator for 1bn not stated); for fold decrease in ROCK1 activity/potency compared to parent compound 1aa: comparator 1aa;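 as to all read-outs here: kinase phosphorylates a coumarin/fluorescein-labelled FRET peptide, then a protease cleaves unphosphorylated peptide, progress read as donor to acceptor emission ratio after 400 nm excitation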
[2] = biological target: ROCK2 (Homo sapiens (Human), UniProt O75116); assay: FRET-based Z'-Lyte kinase assay, ROCK2; assay type: biochemical; settings: read-out: IC50 ± SD (μM) ROCK2;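 also: kinase phosphorylates a coumarin/fluorescein FRET peptide, then a protease cleaves unphosphorylated peptide, read as donor/acceptor emission ratio after 400 nm excitation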
Sequence of ROCK2 (O75116 whole entry, species assumed): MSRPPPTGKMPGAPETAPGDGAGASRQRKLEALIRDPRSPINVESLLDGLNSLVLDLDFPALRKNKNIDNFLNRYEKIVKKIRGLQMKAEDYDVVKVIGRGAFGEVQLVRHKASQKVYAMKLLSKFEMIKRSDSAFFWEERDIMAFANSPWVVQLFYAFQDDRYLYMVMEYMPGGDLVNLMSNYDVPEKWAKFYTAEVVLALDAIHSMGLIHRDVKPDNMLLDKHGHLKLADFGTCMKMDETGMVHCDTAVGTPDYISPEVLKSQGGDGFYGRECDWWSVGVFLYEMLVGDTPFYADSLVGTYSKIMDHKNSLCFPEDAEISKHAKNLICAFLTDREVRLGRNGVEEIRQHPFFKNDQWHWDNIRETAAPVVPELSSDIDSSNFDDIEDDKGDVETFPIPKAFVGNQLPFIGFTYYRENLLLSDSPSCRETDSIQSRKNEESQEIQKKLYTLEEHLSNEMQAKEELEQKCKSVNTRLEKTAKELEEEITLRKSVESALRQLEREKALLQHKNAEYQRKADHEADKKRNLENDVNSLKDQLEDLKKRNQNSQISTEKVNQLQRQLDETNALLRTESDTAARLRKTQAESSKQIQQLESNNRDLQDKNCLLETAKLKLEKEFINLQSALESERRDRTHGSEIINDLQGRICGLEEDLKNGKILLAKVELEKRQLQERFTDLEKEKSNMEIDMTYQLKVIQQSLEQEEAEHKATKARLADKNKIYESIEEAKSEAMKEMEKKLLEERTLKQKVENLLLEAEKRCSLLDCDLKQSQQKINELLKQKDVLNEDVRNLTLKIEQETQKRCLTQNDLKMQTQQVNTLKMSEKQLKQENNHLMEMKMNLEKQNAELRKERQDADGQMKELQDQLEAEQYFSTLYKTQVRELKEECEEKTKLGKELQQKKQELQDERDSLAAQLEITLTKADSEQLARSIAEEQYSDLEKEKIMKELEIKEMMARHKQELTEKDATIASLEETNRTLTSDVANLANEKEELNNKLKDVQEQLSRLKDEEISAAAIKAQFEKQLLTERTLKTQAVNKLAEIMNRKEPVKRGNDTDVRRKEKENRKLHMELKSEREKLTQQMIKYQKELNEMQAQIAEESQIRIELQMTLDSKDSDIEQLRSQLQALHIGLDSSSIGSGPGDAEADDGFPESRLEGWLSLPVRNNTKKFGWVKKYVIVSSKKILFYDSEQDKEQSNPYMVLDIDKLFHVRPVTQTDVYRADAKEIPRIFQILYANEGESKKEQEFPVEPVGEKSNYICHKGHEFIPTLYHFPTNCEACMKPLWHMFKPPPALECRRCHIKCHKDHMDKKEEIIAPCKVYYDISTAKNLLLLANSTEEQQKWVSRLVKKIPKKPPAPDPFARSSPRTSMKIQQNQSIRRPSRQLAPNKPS
Description: A) In the primary reaction, the Rho kinases phosphorylates a single serine or threonine residue in a synthetic FRET-peptide. This FRET-peptide is doubly labeled with a fluorophore at each end—coumarin (the FRET donor) on one end and fluorescein (the FRET acceptor) on the other—and also contains a single phosphorylation site which either overlaps with or lies adjacent to the proteolytic site. B) In the secondary reaction, a site-specific protease recognizes and cleaves the non-phosphorylated FRET-peptide. Cleavage disrupts FRET between the donor and acceptor fluorophores on the FRET-peptide, whereas uncleaved, phosphorylated FRET-peptides maintain FRET. Kinases phosphorylated FRET-peptides cannot be cleaved by the protease. […] Cleavage disrupts FRET and causes a decrease in the fluorescein fluorescence signal and a strong increase in the coumarin fluorescence signal. Therefore the extension of the phosphprylation can be measured by FRET-signal remaining the protease reaction. The assay uses a ratiometric method, which calculates the ratio of donor emission to acceptor emission (the emission ratio) after excitation of the donor fluorophore at 400 nm, to quantitate reaction progress.
All compounds were systematically screened against ROCK1 and ROCK2.

Sequence of ROCK1 (Q13464 whole entry, species assumed): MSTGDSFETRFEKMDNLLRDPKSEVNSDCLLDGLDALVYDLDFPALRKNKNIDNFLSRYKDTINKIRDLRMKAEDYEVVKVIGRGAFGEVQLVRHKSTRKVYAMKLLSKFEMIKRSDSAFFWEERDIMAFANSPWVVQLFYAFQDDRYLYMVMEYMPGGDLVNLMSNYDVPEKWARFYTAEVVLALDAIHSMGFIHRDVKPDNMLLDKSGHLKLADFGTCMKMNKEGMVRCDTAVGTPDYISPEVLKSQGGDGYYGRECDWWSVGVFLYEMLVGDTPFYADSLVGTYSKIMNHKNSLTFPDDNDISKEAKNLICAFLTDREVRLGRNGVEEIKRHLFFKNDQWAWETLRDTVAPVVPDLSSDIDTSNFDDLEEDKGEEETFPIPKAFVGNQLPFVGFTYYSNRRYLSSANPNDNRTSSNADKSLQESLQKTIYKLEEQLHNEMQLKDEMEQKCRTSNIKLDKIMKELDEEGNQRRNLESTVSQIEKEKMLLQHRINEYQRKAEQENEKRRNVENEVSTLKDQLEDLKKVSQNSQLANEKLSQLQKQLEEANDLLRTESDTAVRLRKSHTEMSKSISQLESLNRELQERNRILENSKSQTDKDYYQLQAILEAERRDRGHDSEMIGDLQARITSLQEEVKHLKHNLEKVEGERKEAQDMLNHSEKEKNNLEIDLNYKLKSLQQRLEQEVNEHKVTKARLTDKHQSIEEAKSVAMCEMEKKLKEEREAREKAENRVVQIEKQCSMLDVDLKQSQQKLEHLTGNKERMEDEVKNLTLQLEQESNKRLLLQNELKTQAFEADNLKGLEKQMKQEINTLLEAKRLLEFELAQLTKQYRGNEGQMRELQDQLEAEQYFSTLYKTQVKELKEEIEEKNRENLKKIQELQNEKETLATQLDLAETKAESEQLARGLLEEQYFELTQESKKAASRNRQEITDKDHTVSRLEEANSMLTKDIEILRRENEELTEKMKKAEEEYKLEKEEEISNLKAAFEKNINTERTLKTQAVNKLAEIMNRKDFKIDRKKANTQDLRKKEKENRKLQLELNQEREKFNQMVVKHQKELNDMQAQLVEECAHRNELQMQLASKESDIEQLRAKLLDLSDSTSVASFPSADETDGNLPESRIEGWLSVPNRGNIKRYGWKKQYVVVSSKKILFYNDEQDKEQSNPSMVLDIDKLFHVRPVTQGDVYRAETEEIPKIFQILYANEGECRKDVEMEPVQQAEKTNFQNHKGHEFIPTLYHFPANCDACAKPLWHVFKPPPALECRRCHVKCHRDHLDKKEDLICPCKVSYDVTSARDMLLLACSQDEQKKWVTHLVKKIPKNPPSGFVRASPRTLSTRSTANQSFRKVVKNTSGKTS

| SMILES | IC50 [1] [µM] | IC50 [2] [µM] | fold decrease in activity compared to 1bo [1] [fold] | fold decrease in ROCK1 activity/potency compared to parent compound 1aa [1] [fold] | fold more potent/active than its enantiomer ([1]; comparator: enantiomer (1ai for 1ah, 1bf for 1be)) [fold] | fold loss of potency compared to 1at ([1]; comparator 1at) [fold] |
| --- | --- | --- | --- | --- | --- | --- |
| O=C(NCc1ccc(O)cc1)Nc1nc(-c2ccncc2)cs1 [Compound 1ax, 1-(4-Hydroxybenzyl)-3-(4-(pyridin-4-yl)thiazol-2-yl)urea] | 0.38 ± 0.046 | 0.14 ± 0.029 |  |  |  |  |
| Nc1cccc(CNC(=O)Nc2nc(-c3ccncc3)cs2)c1 [Compound 1ay, 1-(3-Aminobenzyl)-3-(4-(pyridin-4-yl)thiazol-2-yl)urea] | 0.05 ± 0.009 | 0.02 ± 0.008 | 6 |  |  |  |
| Cc1cccc(CNC(=O)Nc2nc(-c3ccncc3)cs2)c1 [Compound 1ba, 1-(3-Methylbenzyl)-3-(4-(pyridin-4-yl)thiazol-2-yl)urea] | 0.46 ± 0.08 | 0.12 ± 0.03 |  | 3 |  |  |
| COc1cccc(CNC(=O)Nc2nc(-c3ccncc3)cs2)c1OC [Compound 1bc, 1-(2,3-Dimethoxybenzyl)-3-(4-(pyridin-4-yl)thiazol-2-yl)urea] | 35.4 ± 6.78 | 19.7 ± 2.94 |  |  |  |  |
| Cc1ccc(CNC(=O)Nc2nc(-c3ccncc3)cs2)cc1 [Compound 1bd, 1-(4-Methylbenzyl)-3-(4-(pyridin-4-yl)thiazol-2-yl)urea] | 5.16 ± 0.51 | 2.05 ± 0.15 |  |  |  |  |
| CC[C@@H](NC(=O)Nc1nc(-c2ccncc2)cs1)c1ccccc1 [Compound 1be, (R)-1-(1-Phenylpropyl)-3-(4-(pyridin-4-yl)thiazol-2-yl)urea] | 0.09 ± 0.02 | 0.03 ± 0.01 |  | 3.5 | 745 |  |
| CC[C@H](NC(=O)Nc1nc(-c2ccncc2)cs1)c1ccccc1 [Compound 1bf, (S)-1-(1-Phenylpropyl)-3-(4-(pyridin-4-yl)thiazol-2-yl)urea] | 52.2 ± 3.64 | 22 ± 7.79 |  |  |  |  |
| COc1cccc([C@H](C)NC(=O)Nc2nc(-c3ccncc3)cs2)c1 [Compound 1bg, (S)-1-(1-(3-Methoxyphenyl)ethyl)-3-(4-(pyridin-4-yl)thiazol-2-yl)urea] | 18.7 ± 2.09 | 3.25 ± 0.96 |  |  |  |  |
| O=C(Nc1nc(-c2ccncc2)cs1)NC(c1ccccc1)c1ccccc1 [Compound 1bi, 1-Benzhydryl-3-(4-(pyridin-4-yl)thiazol-2-yl)urea] | 1.87 ± 0.54 | 0.53 ± 0.1 |  | 12 |  |  |
| COC[C@@H](NC(=O)Nc1nc(-c2ccncc2)cs1)c1ccccc1 [Compound 1bj, (S)-1-(2-Methoxy-1-phenylethyl)-3-(4-(pyridin-4-yl)thiazol-2-yl)urea] | 0.07 ± 0.005 | 0.03 ± 0.009 |  |  |  | 3.5 |
| COC[C@H](NC(=O)Nc1nc(-c2ccncc2)cs1)c1ccccc1 [Compound 1bk, (R)-1-(2-Methoxy-1-phenylethyl)-3-(4-(pyridin-4-yl)thiazol-2-yl)urea] | 29.5 ± 3.28 | 11.5 ± 1.24 |  |  |  |  |
| Nc1ccc(CNC(=O)Nc2nc(-c3ccncc3)cs2)cc1 [Compound 1bl, 1-(4-Aminobenzyl)-3-(4-(pyridin-4-yl)thiazol-2-yl)urea] | 45.9 ± 5.15 | 17.4 ± 3.79 |  |  |  |  |
| COCCOc1cccc(CNC(=O)Nc2nc(-c3ccncc3)cs2)c1 [Compound 1bm, 1-(3-(2-Methoxyethoxy)benzyl)-3-(4-(pyridin-4-yl)thiazol-2-yl)urea] | 0.5 ± 0.05 | 0.24 ± 0.03 |  |  |  |  |
| O=C(NCc1cccc2[nH]ccc12)Nc1nc(-c2ccncc2)cs1 [Compound 1bn, 1-((1H-indol-4-yl)methyl)-3-(4-(pyridin-4-yl)thiazol-2-yl)urea] | 37.8 ± 7.81 | 31.1 ± 9.14 | 470 |  |  |  |
| O=C(NCc1ccccc1O)Nc1nc(-c2ccncc2)cs1 [Compound 1bp, 1-(2-Hydroxybenzyl)-3-(4-(pyridin-4-yl)thiazol-2-yl)urea] | 0.62 ± 0.019 | 0.28 ± 0.05 |  |  |  |  |
| CNc1cccc(CNC(=O)Nc2nc(-c3ccncc3)cs2)c1 [Compound 1bq, 1-(3-(Methylamino)benzyl)-3-(4-(pyridin-4-yl)thiazol-2-yl)urea] | 0.47 ± 0.013 | 0.24 ± 0.04 |  |  |  |  |
